Laboratory results as given in ChEMBL document CHEMBL4385643, “Design of a brain-penetrant CDK4/6 inhibitor for glioblastoma” (Bioorg Med Chem Lett, 2019).

Tests used:
[1] = Unbound brain to plasma ratio in Sprague-Dawley rat at 30 mg/kg, po after 48 hrs by LC-MS/MS analysis; type: ADME, organism-based; conditions: read-out: K(p,uu,brain)
[2] = target: 3-phosphoinositide-dependent protein kinase 1 (Homo sapiens) (UniProt O15530); assay: Inhibition of recombinant human His-tagged PDK1 expressed in baculovirus expression system at 0.1 uM using serine/threonine-7 peptide as substrate incubated for 60 mins by Z'-LYTE assay relative to control
3-phosphoinositide-dependent protein kinase 1 (Homo sapiens), sequence (O15530 whole entry): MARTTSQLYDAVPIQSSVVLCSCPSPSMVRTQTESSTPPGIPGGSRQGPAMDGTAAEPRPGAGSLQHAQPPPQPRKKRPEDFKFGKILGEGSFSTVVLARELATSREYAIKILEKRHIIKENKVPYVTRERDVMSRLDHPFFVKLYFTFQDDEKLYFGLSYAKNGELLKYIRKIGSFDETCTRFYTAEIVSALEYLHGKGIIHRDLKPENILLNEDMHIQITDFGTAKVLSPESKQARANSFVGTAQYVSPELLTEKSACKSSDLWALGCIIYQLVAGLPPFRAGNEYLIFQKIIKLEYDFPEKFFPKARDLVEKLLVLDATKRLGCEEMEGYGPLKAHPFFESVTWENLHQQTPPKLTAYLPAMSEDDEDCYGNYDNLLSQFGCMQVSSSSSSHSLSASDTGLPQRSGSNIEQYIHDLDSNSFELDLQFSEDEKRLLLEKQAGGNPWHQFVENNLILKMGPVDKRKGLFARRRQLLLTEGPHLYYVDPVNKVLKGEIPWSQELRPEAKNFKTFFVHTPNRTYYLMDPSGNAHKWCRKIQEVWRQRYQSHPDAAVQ

[3] = target: Serine/threonine-protein kinase PAK 3 (Homo sapiens) (UniProt O75914); assay: Inhibition of recombinant full length human His-tagged PAK3 expressed in baculovirus expression system at 0.1 uM using serine/threonine-20 peptide as substrate incubated for 60 mins by Z'-LYTE assay relative to control
Serine/threonine-protein kinase PAK 3 (Homo sapiens), sequence (O75914 whole entry, looked up): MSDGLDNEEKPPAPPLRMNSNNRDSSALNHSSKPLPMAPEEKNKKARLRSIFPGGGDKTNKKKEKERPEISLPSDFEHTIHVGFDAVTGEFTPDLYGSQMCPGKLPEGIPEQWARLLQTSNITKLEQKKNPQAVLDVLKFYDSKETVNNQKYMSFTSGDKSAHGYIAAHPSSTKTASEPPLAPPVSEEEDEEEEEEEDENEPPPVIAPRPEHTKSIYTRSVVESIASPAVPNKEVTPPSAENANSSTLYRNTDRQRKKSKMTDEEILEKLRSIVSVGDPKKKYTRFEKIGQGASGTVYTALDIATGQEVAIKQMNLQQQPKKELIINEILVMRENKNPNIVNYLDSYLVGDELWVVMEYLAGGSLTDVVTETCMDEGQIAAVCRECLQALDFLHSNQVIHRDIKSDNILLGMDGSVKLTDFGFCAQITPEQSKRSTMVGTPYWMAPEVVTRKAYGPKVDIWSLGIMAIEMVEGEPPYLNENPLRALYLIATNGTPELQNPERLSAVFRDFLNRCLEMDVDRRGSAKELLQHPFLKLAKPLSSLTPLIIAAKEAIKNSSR

[4] = target: Megakaryocyte-associated tyrosine-protein kinase (Homo sapiens) (UniProt P42679); assay: Inhibition of recombinant full length human His-tagged HYL expressed in Escherichia coli expression system at 0.1 uM using tyrosine-1 peptide as substrate incubated for 60 mins by Z'-LYTE assay relative to control
Megakaryocyte-associated tyrosine-protein kinase (Homo sapiens), sequence (P42679 whole entry): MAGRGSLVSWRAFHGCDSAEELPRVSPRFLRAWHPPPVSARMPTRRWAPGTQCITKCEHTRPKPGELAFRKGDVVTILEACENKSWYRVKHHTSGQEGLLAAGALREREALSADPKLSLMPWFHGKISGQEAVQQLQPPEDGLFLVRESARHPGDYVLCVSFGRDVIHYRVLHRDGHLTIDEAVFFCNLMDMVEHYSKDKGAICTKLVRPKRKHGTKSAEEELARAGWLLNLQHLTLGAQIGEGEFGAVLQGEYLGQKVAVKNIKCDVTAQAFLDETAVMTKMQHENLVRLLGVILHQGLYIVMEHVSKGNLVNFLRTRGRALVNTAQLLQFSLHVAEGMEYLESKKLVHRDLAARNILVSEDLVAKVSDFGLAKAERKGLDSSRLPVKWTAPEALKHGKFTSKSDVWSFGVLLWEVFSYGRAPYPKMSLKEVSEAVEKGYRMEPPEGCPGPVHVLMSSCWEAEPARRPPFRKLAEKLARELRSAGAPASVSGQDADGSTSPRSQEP

[5] = target: Protein kinase C eta type (Homo sapiens) (UniProt P24723); assay: Inhibition of recombinant full length human His-tagged PKCeta expressed in baculovirus expression system at 0.1 uM using serine/threonine-7 peptide as substrate incubated for 60 mins by Z'-LYTE assay relative to control
Protein kinase C eta type (Homo sapiens), sequence (P24723 whole entry): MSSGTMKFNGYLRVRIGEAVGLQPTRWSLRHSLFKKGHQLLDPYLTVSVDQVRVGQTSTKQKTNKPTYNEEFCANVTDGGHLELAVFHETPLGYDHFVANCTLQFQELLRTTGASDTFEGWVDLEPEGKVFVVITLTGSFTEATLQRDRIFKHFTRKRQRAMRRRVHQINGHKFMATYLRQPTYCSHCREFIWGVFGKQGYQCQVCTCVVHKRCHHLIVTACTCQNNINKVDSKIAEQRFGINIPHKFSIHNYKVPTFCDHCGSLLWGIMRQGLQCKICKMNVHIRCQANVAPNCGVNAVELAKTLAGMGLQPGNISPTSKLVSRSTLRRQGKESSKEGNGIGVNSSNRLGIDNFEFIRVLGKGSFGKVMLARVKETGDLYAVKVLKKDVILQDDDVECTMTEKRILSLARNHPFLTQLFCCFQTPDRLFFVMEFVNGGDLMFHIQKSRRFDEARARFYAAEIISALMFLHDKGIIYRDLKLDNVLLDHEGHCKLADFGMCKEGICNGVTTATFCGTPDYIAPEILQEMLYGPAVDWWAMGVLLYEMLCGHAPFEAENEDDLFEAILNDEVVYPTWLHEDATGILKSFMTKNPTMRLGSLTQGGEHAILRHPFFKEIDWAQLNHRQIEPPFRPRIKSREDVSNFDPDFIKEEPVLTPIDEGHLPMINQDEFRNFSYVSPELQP

[6] = target: Tyrosine-protein kinase ABL1 (Homo sapiens) (UniProt P00519); assay: Inhibition of recombinant full length human His-tagged ABL1 expressed in baculovirus expression system at 0.1 uM using tyrosine-2 peptide as substrate incubated for 60 mins by Z'-LYTE assay relative to control
Tyrosine-protein kinase ABL1 (Homo sapiens), sequence (P00519 whole entry, the tested form may be a part): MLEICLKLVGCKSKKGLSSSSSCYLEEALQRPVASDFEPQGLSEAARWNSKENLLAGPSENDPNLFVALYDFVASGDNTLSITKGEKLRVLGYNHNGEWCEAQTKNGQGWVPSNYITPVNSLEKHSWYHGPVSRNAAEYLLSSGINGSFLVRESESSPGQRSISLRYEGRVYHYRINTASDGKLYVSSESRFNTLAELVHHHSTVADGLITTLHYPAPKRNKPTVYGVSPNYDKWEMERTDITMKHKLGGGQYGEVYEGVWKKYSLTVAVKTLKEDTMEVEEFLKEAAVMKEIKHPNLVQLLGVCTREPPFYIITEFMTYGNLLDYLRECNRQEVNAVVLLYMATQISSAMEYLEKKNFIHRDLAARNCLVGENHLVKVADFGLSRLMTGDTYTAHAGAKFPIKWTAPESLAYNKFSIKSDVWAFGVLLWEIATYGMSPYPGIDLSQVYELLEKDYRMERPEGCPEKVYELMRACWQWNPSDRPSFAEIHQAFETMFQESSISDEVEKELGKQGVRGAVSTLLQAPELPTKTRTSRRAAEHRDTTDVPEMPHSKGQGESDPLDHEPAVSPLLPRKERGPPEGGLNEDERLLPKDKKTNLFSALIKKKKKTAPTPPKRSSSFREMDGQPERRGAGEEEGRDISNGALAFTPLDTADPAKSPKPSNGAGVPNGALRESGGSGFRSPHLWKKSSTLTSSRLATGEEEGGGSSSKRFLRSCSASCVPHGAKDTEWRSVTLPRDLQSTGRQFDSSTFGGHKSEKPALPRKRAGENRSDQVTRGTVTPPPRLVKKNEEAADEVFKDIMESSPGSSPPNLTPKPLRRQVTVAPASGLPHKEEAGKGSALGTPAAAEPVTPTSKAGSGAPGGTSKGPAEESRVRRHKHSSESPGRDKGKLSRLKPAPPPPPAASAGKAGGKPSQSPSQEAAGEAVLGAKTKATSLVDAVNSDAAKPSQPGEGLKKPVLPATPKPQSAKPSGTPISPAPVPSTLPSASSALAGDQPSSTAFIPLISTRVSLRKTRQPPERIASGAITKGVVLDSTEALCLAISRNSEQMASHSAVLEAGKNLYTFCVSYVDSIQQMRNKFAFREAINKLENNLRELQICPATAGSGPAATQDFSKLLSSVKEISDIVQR

[7] = target: Activin receptor type-1B (Homo sapiens) (UniProt P36896); assay: Inhibition of recombinant human GST-tagged ACVR1B catalytic domain (150 to 505 residues) expressed in baculovirus expression system at 0.1 uM using serine/threonine-16 peptide as substrate incubated for 60 mins by Z'-LYTE assay relative to control
Activin receptor type-1B (Homo sapiens), sequence (P36896 whole entry, the tested form may be a part): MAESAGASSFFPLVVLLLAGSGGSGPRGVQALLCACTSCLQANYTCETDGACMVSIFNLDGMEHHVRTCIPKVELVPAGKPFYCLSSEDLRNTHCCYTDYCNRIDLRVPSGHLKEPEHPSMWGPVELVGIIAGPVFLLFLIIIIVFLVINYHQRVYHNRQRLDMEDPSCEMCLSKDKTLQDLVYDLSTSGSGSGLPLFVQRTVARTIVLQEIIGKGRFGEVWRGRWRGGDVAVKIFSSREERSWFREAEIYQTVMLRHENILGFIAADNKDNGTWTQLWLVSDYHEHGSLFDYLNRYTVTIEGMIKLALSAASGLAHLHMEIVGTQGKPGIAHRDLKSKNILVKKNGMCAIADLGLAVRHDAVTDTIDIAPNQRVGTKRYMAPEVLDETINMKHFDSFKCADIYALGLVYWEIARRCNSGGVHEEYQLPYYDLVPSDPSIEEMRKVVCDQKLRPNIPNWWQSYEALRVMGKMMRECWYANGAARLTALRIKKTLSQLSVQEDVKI

[8] = target: Serine/threonine-protein kinase 4 (Homo sapiens) (UniProt Q13043); assay: Inhibition of recombinant full length human GST-tagged MST1 expressed in baculovirus expression system at 0.1 uM using serine/threonine-7 peptide as substrate incubated for 60 mins by Z'-LYTE assay relative to control
[9] = target: MAP kinase-activated protein kinase 2 (Homo sapiens) (UniProt P49137); assay: Inhibition of recombinant full length human His-tagged MAPKAPK2 expressed in Escherichia coli expression system at 0.1 uM using serine/threonine-4 peptide as substrate incubated for 60 mins by Z'-LYTE assay relative to control
MAP kinase-activated protein kinase 2 (Homo sapiens), sequence (P49137 whole entry, looked up, the tested form may be a part): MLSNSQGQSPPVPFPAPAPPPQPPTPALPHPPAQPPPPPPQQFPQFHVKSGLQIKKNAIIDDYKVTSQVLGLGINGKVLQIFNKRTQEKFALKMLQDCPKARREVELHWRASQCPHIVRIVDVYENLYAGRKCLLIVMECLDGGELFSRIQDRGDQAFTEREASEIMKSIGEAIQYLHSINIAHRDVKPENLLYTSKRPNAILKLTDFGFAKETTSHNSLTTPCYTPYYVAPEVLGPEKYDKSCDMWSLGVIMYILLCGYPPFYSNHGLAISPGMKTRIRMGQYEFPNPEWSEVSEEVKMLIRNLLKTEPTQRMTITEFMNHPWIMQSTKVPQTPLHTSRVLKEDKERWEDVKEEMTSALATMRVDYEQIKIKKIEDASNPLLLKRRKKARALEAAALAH

[10] = target: Vascular endothelial growth factor receptor 3 (Homo sapiens) (UniProt P35916); assay: Inhibition of recombinant human GST-tagged FLT4 catalytic domain (800 to 1297 residues) expressed in baculovirus expression system at 0.1 uM using tyrosine-4 peptide as substrate incubated for 60 mins by Z'-LYTE assay relative to control
[11] = target: NUAK family SNF1-like kinase 1 (Homo sapiens) (UniProt O60285); assay: Inhibition of recombinant full length human His-tagged ARK5 expressed in baculovirus expression system at 0.1 uM using CHKtide peptide as substrate incubated for 60 mins by Adapta assay relative to control
[12] = target: Tyrosine-protein kinase JAK1 (Homo sapiens) (UniProt P23458); assay: Inhibition of recombinant human GST-tagged JAK1 catalytic domain (866 to 1154 residues) expressed in baculovirus expression system at 0.1 uM using tyrosine-6 peptide as substrate incubated for 60 mins by Z'-LYTE assay relative to control
[13] = target: Mitogen-activated protein kinase 9 (Homo sapiens) (UniProt P45984); assay: Inhibition of recombinant full length human His-tagged JNK2 expressed in baculovirus expression system at 0.1 uM using serine/threonine-4 peptide as substrate incubated for 60 mins by Z'-LYTE assay relative to control
Mitogen-activated protein kinase 9 (Homo sapiens), sequence (P45984 whole entry, looked up): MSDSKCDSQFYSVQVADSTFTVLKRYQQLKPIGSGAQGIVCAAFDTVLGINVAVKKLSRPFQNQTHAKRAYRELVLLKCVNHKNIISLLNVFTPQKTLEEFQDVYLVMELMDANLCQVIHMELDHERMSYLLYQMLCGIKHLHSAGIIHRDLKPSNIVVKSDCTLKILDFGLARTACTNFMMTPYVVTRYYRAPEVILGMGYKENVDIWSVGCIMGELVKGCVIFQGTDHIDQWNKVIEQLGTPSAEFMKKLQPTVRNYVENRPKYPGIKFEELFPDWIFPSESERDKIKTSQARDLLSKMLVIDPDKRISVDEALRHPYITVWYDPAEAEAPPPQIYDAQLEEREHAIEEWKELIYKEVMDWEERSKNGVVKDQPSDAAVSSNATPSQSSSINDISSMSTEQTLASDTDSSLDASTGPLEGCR

[14] = target: CDK1/Cyclin A (Homo sapiens, UniProt P06493)
Description: Inhibition of human recombinant full length GST-tagged CDK1/Cyclin A2 expressed in sf9 insect cells assessed as inhibition constant using Ulight-4E-BP1 as substrate preincubated for 30 mins followed by substrate addition and incubated for 90 mins by TR-FRET assay

[15] = target: Calcium/calmodulin-dependent protein kinase type II subunit alpha (Homo sapiens) (UniProt Q9UQM7); assay: Inhibition of recombinant full length human His-tagged CAMK2alpha expressed in baculovirus expression system at 0.1 uM using serine/threonine-4 peptide as substrate incubated for 60 mins by Z'-LYTE assay relative to control
[16] = target: Dual specificity tyrosine-phosphorylation-regulated kinase 3 (Homo sapiens) (UniProt O43781); assay: Inhibition of recombinant full length human GST-tagged DYRK3 expressed in baculovirus expression system at 0.1 uM using serine/threonine-9 peptide as substrate incubated for 60 mins by Z'-LYTE assay relative to control
[17] = target: Dual specificity protein kinase CLK1 (Homo sapiens) (UniProt P49759); assay: Inhibition of recombinant human GST-tagged CLK1 catalytic domain (129 to 484 residues) expressed in Escherichia coli expression system at 0.1 uM using serine/threonine-9 peptide as substrate incubated for 60 mins by Z'-LYTE assay relative to control
[18] = in vivo; conditions: CD-1, mouse, brain/plasma, po, 25 mg/kg
Description: Plasma to brain permeability coefficient, Kp of the unbound compound in CD-1 mouse at 25 mg/kg, po measured at 6 hrs post dose by LC/MS/MS analysis

[19] = target: CDK2/Cyclin A2 (Homo sapiens) (UniProt P24941+P20248); conditions: at 0.1 µM
Description: Inhibition of recombinant full length human His-tagged CDK2/Cyclin A expressed in baculovirus expression system at 0.1 uM using serine/threonine-12 peptide as substrate incubated for 60 mins by Z'-LYTE assay relative to control

[20] = in vivo; conditions: CD-1, mouse, po, 25 mg/kg
[21] = target: Dual specificity protein kinase CLK2 (Homo sapiens) (UniProt P49760); assay: Inhibition of recombinant human GST-tagged CLK2 catalytic domain (137 to 498 residues) expressed in Baculovirus expression system at 0.1 uM using serine/threonine-6 peptide as substrate incubated for 60 mins by Z'-LYTE assay relative to control
[22] = target: CDK4/Cyclin D3 (Homo sapiens) (UniProt P11802+P30281); assay: Inhibition of recombinant full length human GST-tagged CDK4/Cyclin D3 expressed in insect expression system at 0.1 uM using Rb peptide as substrate incubated for 60 mins by Adapta assay relative to control
[23] = target: Glycogen synthase kinase-3 beta (Homo sapiens) (UniProt P49841); assay: Inhibition of recombinant full length human His-tagged GSK3beta expressed in baculovirus expression system at 0.1 uM using serine/threonine-9 peptide as substrate incubated for 60 mins by Z'-LYTE assay relative to control
[24] = in vivo; conditions: CD-1, mouse, iv, 1 mg/kg
Description: Volume of distribution at steady state in CD-1 mouse at 1.0 mg/kg, iv measured upto 6 hours by LC-MS/MS analysis

[25] = in vivo; conditions: CD-1, mouse, blood, iv, 1 mg/kg
[26] = target: Cyclin-dependent kinase 1/cyclin B1 (Homo sapiens) (UniProt P06493+P14635); conditions: at 0.1 µM
Description: Inhibition of recombinant full length human His-tagged CDK1/CyclinB expressed in baculovirus expression system at 0.1 uM using serine/threonine-18 peptide as substrate incubated for 60 mins by Z'-LYTE assay relative to control

[27] = Plasma to brain permeability coefficient, Kp of the unbound compound in CD-1 mouse at 1.0 mg/kg, iv measured at 6 hrs post dose by LC/MS/MS analysis; type: ADME, organism-based; conditions: read-out: K(p,uu,brain)
[28] = in vivo; conditions: CD-1, mouse, plasma, po, 25 mg/kg
Description: Protein binding in CD-1 mouse plasma assessed as fraction unbound at 25 mg/kg, po measured up to 6 hours by LC-MS/MS analysis

Row | SMILES | inhibition [2] | inhibition [3] | inhibition [4] | inhibition [5] | inhibition [6] | inhibition [7] | inhibition [8] | inhibition [9] | inhibition [10] | inhibition [11] | inhibition [12] | inhibition [13] | other results
1 | CCN1CCN(Cc2ccc(Nc3ncc(F)c(-c4cc(F)c5nc(C)n(C(C)C)c5c4)n3)nc2)CC1 [ABEMACICLIB] | 1% | 11.4% | 0% | 35% | 1.5% | -2% | 1.5% | 14.5% | 4% | 22.7% | 2% | 25.5% | Kp uu at 48 h [1]: 0.11
2 | CCN1CC2(C1)CN(c1ccc(Nc3ncc(F)c(-c4cnn5c4[C@H](C)CCCC5)n3)nc1)C2 | 8.5% | 8% | -0.5% | 15.5% | 3.5% | -4% | 8% | 4.5% | 19% | 92% | 5% | 61.5% | Ki [14]: 110 nM; inhibition [15]: 37.5%; inhibition [16]: 34%; inhibition [17]: 77.5%; Kp uu at 6 h [18]: 0.2; inhibition [19]: 86.5%; bioavailability at 6 h [20]: 23%; inhibition [21]: 98%; inhibition [22]: 88.5%; inhibition [23]: 30.5%; Vd at 6 h [24]: 6.2 L/kg; clearance at 6 h [25]: 96 mL/min/kg; inhibition [26]: 52.5%; Kp uu at 6 h [27]: 0.28; fraction unbound at 6 h [28]: 0.073
